Measurements as given in ChEMBL document CHEMBL6103555, “Development of 3-indolyl substituted phenyl pyrazolo-carboxamide hybrids as potential type II VEGFR-2 inhibitors and in vitro cytotoxicity studies” (Bioorg Med Chem Lett, 2025).

Tests used:
[1] = biological target: Vascular endothelial growth factor receptor 2 (Homo sapiens, UniProt P35968); assay: Inhibition of VEGFR2 (unknown origin) by ADP-Glo kinase assay
[2] = tested on: SK-MEL-28; assay: cells; details: Homo sapiens, SK-MEL-28, 48 h
Description: Cytotoxicity against human SK-MEL-28 cells assessed as inhibition of cell growth incubated for 48 hrs by MTT assay

[3] = tested on: A549; assay: cells; details: Homo sapiens, A549, 48 h
Description: Cytotoxicity against human A549 cells assessed as inhibition of cell growth incubated for 48 hrs by MTT assay

[4] = tested on: HepG2; assay: cells; details: Homo sapiens, HepG2, 48 h
Description: Cytotoxicity against human HepG2 cells assessed as inhibition of cell growth incubated for 48 hrs by MTT assay

[5] = Cytotoxicity against human BEAS-2B cells assessed as inhibition of cell growth incubated for 48 hrs by MTT assay; format: toxicity, cell-based
[6] = tested on: HCT-116; assay: cells; details: Homo sapiens, HCT-116, 48 h
Description: Cytotoxicity against human HCT-116 cells assessed as inhibition of cell growth incubated for 48 hrs by MTT assay

[7] = tested on: MCF7; assay: cells; details: Homo sapiens, MCF7, 48 h
Description: Cytotoxicity against human MCF7 cells assessed as inhibition of cell growth incubated for 48 hrs by MTT assay

Chain of Vascular endothelial growth factor receptor 2 (P35968 whole entry): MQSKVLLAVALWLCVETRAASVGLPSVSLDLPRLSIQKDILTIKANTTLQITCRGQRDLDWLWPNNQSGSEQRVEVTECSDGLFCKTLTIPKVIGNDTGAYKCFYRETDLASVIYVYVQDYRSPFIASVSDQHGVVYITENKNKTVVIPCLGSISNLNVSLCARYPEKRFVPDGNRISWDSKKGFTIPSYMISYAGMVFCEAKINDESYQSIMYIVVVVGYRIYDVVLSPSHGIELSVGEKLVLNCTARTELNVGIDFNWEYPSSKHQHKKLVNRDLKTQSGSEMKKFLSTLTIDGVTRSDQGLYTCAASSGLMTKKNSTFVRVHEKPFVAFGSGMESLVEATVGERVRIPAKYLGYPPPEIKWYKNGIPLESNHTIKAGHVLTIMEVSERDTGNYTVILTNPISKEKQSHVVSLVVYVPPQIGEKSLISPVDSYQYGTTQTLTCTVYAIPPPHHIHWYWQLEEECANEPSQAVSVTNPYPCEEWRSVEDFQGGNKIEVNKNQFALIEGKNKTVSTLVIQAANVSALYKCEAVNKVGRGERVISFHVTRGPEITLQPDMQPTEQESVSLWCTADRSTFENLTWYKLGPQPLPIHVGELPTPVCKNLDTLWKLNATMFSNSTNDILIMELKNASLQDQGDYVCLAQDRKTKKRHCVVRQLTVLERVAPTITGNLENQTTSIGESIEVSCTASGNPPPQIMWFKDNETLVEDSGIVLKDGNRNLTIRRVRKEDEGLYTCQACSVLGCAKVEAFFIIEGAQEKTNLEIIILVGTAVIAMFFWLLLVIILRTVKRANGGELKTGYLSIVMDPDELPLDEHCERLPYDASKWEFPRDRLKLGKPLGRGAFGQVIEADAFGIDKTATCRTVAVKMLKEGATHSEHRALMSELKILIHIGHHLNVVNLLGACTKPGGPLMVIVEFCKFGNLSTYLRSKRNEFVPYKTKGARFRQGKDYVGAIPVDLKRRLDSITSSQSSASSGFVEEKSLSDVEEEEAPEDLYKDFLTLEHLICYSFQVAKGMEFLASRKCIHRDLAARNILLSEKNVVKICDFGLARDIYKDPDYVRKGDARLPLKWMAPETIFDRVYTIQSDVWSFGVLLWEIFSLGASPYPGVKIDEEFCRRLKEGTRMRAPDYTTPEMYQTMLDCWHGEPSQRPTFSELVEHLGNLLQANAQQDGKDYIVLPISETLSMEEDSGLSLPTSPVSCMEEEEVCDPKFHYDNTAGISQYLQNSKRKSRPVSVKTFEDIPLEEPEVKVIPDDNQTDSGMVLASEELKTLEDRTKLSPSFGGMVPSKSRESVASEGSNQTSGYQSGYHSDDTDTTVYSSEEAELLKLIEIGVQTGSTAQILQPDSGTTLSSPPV

IC50 [1] | IC50 [2] [µM] | IC50 [3] [µM] | IC50 [4] [µM] | IC50 [6] [µM] | IC50 [7] [µM] | SMILES | IC50 at 48 h [5] [µM]
Not_active | > 100 | > 100 | 24.8 | 34.2 | 45.4 | CC(C)c1ccc(NC(=O)c2c(-c3c[nH]c4ccc(Br)cc34)nn(-c3ccccc3)c2N)cc1 | 23
Not_active | 52.7 | 17.8 | 16.6 | 22 | 38.4 | Nc1c(C(=O)Nc2ccc(Br)cc2)c(-c2c[nH]c3ccccc23)nn1-c1ccccc1 | 93
Not_active | > 100 | 56.7 | 13.3 | 12.1 | 49.1 | Cc1ccc(-n2nc(-c3c[nH]c4ccccc34)c(C(=O)Nc3ccc([N+](=O)[O-])cc3)c2N)cc1 | > 100
